Measurements reported in the kinase profiling compilation of Christmann-Franck et al. (2016).

Assays:
Assay in all cases: KINOMEscan competition binding
Details in all cases: compound 0.5 µM
PAK7 (human) = PAK7 (human) (UniProt Q9P286)
DSTYK (human) = DSTYK (human) (UniProt Q6XUX3)
MAPK4 (human) = MAPK4 (human) (UniProt P31152)
[1] = tested on: FLT3 (human), P36888 [K663Q]
LIMK1 (human) = LIMK1 (human) (UniProt P53667)
MAPK13 (human) = MAPK13 (human) (UniProt O15264)
RPS6KA6 KD1 (human) = RPS6KA6 KD1 (human) (UniProt Q9UK32)
CSNK1G2 (human) = CSNK1G2 (human) (UniProt P78368)
PIK3C2B (human) = PIK3C2B (human) (UniProt O00750)
STK32B (human) = STK32B (human) (UniProt Q9NY57)
EPHA5 (human) = EPHA5 (human) (UniProt P54756)
WEE1 (human) = WEE1 (human) (UniProt P30291)
RPS6KA2 KD1 (human) = RPS6KA2 KD1 (human) (UniProt Q15349)
PKMYT1 (human) = PKMYT1 (human) (UniProt Q99640)
AURKC (human) = AURKC (human) (UniProt Q9UQB9)
YSK4 (human) = YSK4 (human) (UniProt Q56UN5)
MYLK3 (human) = MYLK3 (human) (UniProt Q32MK0)
[2] = tested on: RET (human), P07949 [V804M]
HCK (human) = HCK (human) (UniProt P08631)
RIPK2 (human) = RIPK2 (human) (UniProt O43353)
WEE2 (human) = WEE2 (human) (UniProt P0C1S8)
SRC (human) = SRC (human) (UniProt P12931)
TYRO3 (human) = TYRO3 (human) (UniProt Q06418)
MAP2K1 (human) = MAP2K1 (human) (UniProt Q02750)
NEK6 (human) = NEK6 (human) (UniProt Q9HC98)
CDK16 (human) = CDK16 (human) (UniProt Q00536)
PIK3CB (human) = PIK3CB (human) (UniProt P42338)
RIPK4 (human) = RIPK4 (human) (UniProt P57078)
DCLK1 (human) = DCLK1 (human) (UniProt O15075)
LATS1 (human) = LATS1 (human) (UniProt O95835)
STK17A (human) = STK17A (human) (UniProt Q9UEE5)
LRRK2 (human) = LRRK2 (human) (UniProt Q5S007)
PDGFRB (human) = PDGFRB (human) (UniProt P09619)
HIPK1 (human) = HIPK1 (human) (UniProt Q86Z02)
NTRK3 (human) = NTRK3 (human) (UniProt Q16288)
PIM3 (human) = PIM3 (human) (UniProt Q86V86)
INSRR (human) = INSRR (human) (UniProt P14616)
MAPK7 (human) = MAPK7 (human) (UniProt Q13164)
CAMK2A (human) = CAMK2A (human) (UniProt Q9UQM7)
[3] = tested on: ABL1 (human), P00519 [Y253F]
ERBB4 (human) = ERBB4 (human) (UniProt Q15303)
STK24 (human) = STK24 (human) (UniProt Q9Y6E0)

STK32B (human), sequence (Q9NY57 whole entry, looked up): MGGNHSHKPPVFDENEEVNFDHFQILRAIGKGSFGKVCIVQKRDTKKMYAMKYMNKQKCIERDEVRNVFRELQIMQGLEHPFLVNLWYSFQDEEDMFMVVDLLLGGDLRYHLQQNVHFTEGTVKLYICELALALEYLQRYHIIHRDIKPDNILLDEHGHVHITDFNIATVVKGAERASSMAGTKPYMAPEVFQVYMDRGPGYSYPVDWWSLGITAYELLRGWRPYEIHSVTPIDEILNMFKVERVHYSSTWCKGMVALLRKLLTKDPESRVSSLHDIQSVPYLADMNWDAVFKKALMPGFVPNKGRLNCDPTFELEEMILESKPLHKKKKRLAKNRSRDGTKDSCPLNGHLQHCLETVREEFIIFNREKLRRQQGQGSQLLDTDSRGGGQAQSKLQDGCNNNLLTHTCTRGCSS
PIK3CB (human), sequence (P42338 whole entry, looked up): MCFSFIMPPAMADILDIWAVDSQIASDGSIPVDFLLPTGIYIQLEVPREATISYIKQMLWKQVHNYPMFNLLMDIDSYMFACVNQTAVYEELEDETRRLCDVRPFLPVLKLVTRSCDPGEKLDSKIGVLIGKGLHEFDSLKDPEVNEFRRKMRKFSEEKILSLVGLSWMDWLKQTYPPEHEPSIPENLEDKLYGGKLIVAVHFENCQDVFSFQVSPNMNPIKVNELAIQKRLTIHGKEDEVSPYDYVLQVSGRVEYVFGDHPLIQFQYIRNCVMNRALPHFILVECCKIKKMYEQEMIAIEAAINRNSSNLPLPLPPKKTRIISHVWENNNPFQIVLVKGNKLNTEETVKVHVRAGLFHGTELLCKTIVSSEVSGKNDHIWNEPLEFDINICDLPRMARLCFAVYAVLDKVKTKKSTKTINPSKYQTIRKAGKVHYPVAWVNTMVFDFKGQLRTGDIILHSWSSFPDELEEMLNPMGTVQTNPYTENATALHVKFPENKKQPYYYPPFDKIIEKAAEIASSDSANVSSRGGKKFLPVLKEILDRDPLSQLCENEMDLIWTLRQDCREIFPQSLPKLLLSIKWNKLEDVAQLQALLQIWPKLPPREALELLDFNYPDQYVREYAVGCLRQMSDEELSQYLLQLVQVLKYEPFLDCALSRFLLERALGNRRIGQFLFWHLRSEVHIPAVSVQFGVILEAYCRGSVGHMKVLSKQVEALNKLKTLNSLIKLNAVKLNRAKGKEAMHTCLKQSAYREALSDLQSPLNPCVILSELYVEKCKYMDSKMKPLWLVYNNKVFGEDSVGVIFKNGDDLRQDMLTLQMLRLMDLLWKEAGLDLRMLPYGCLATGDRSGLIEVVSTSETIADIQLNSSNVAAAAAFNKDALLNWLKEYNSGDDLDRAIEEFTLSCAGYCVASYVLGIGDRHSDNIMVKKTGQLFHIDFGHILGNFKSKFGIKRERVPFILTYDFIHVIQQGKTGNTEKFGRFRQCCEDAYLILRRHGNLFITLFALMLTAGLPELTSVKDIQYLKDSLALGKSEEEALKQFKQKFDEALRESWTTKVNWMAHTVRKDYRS
NEK6 (human), sequence (Q9HC98 whole entry, looked up): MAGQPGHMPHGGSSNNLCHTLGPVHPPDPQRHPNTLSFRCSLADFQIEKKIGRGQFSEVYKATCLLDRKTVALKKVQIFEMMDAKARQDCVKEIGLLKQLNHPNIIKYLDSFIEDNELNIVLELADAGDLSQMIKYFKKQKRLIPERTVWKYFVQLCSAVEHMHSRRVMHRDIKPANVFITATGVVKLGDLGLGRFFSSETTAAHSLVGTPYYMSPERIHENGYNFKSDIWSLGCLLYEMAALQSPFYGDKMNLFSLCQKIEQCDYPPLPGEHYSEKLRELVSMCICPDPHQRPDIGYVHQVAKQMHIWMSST
RPS6KA6 KD1 (human), sequence (Q9UK32 whole entry, looked up): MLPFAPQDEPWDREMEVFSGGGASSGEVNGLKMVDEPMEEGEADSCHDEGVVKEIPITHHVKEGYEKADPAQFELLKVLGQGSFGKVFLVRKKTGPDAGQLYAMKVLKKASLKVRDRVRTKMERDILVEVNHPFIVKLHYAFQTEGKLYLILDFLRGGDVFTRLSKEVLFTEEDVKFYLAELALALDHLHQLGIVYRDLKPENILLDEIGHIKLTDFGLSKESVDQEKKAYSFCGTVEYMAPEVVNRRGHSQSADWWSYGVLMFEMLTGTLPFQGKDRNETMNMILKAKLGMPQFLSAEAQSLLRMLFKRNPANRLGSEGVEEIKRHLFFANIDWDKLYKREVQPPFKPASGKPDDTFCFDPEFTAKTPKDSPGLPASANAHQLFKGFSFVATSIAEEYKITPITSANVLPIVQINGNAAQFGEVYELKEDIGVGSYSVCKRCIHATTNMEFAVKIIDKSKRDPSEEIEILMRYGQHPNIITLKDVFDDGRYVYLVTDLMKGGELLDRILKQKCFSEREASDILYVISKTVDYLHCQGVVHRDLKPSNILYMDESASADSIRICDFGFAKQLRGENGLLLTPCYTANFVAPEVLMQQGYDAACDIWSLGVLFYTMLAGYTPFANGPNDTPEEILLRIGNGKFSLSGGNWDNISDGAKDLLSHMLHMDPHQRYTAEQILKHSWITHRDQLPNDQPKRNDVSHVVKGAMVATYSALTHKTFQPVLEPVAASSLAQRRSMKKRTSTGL
RIPK2 (human), sequence (O43353 whole entry, looked up): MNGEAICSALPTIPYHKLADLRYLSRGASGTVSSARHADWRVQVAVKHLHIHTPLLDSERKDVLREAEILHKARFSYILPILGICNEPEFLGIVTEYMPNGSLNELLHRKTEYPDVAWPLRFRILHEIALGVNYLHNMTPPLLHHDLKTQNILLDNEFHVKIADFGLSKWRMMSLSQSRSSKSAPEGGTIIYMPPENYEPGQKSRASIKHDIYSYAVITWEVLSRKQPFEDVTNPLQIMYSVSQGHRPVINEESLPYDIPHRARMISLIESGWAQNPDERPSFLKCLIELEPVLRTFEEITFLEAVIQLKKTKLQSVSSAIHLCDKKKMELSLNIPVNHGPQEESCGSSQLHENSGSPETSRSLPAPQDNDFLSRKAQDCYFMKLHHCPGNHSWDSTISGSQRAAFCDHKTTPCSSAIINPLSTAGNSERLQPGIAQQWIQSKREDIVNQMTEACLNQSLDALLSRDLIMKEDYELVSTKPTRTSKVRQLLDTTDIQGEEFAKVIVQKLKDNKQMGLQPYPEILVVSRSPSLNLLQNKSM
CDK16 (human), sequence (Q00536 whole entry, looked up): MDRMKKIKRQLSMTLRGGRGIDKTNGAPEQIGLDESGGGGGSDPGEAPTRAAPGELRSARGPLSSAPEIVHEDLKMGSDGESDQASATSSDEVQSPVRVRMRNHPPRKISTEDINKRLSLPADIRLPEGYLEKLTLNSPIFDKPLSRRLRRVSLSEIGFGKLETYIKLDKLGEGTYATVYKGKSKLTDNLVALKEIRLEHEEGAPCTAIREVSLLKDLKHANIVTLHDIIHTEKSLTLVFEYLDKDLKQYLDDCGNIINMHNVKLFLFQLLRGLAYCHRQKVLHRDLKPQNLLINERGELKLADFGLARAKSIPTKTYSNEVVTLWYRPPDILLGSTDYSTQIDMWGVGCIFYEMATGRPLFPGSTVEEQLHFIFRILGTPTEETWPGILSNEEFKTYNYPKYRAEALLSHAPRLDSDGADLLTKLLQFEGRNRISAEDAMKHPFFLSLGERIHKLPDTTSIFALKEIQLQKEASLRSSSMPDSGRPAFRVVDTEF
INSRR (human), sequence (P14616 whole entry, looked up): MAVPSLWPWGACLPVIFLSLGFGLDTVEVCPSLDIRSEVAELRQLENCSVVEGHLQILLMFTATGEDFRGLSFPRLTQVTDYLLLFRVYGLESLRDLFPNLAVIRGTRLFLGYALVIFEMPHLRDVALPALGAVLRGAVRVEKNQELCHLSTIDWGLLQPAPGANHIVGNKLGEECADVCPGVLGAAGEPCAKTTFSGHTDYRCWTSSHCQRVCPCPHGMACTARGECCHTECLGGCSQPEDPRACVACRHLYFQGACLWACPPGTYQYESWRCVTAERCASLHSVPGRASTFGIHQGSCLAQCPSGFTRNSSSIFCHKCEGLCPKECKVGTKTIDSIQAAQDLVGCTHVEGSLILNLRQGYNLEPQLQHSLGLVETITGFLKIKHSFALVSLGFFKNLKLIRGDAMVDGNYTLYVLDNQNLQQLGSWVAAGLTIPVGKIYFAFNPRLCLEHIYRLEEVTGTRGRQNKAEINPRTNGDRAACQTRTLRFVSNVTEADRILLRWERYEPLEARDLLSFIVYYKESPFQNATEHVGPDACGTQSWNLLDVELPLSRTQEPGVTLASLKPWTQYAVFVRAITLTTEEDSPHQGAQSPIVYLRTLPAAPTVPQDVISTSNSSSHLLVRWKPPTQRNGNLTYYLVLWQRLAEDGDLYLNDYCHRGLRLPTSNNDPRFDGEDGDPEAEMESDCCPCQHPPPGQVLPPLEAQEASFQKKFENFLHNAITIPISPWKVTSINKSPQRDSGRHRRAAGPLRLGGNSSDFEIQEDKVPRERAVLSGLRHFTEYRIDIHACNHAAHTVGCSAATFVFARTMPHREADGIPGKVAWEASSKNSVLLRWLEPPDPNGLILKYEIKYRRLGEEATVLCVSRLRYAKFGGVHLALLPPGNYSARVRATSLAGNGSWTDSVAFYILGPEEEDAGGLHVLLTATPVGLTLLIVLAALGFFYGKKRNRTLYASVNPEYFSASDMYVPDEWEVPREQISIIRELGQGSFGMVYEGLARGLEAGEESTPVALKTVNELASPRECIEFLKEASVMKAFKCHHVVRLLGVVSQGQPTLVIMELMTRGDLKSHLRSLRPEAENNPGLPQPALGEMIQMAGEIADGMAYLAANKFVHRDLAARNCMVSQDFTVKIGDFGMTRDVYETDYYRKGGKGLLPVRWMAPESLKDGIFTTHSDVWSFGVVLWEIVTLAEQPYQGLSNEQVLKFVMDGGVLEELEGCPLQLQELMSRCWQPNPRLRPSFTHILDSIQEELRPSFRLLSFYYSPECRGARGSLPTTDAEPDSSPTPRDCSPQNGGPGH

Cn1c2ccccc2c2c3c(c4c5ccccc5n(CCC#N)c4c21)CNC3=O
kinase still bound, per cent of control (PAK7 (human)): 3.4% | kinase still bound, per cent of control (DSTYK (human)): 2% | kinase still bound, per cent of control (MAPK4 (human)): 100% | kinase still bound, per cent of control [1]: 0.95% | kinase still bound, per cent of control (LIMK1 (human)): 96% | kinase still bound, per cent of control (MAPK13 (human)): 100% | kinase still bound, per cent of control (RPS6KA6 KD1 (human)): 4.7% | kinase still bound, per cent of control (CSNK1G2 (human)): 94% | kinase still bound, per cent of control (PIK3C2B (human)): 100% | kinase still bound, per cent of control (STK32B (human)): 100% | kinase still bound, per cent of control (EPHA5 (human)): 96% | kinase still bound, per cent of control (WEE1 (human)): 100% | kinase still bound, per cent of control (RPS6KA2 KD1 (human)): 5.4% | kinase still bound, per cent of control (PKMYT1 (human)): 100% | kinase still bound, per cent of control (AURKC (human)): 8% | kinase still bound, per cent of control (YSK4 (human)): 0% | kinase still bound, per cent of control (MYLK3 (human)): 100% | kinase still bound, per cent of control [2]: 0% | kinase still bound, per cent of control (HCK (human)): 100% | kinase still bound, per cent of control (RIPK2 (human)): 100% | kinase still bound, per cent of control (WEE2 (human)): 100% | kinase still bound, per cent of control (SRC (human)): 100% | kinase still bound, per cent of control (TYRO3 (human)): 78% | kinase still bound, per cent of control (MAP2K1 (human)): 71% | kinase still bound, per cent of control (NEK6 (human)): 100% | kinase still bound, per cent of control (CDK16 (human)): 93% | kinase still bound, per cent of control (PIK3CB (human)): 88% | kinase still bound, per cent of control (RIPK4 (human)): 5.2% | kinase still bound, per cent of control (DCLK1 (human)): 87% | kinase still bound, per cent of control (LATS1 (human)): 31% | kinase still bound, per cent of control (STK17A (human)): 71% | kinase still bound, per cent of control (LRRK2 (human)): 19% | kinase still bound, per cent of control (PDGFRB (human)): 42% | kinase still bound, per cent of control (HIPK1 (human)): 32% | kinase still bound, per cent of control (NTRK3 (human)): 0.15% | kinase still bound, per cent of control (PIM3 (human)): 8.9% | kinase still bound, per cent of control (INSRR (human)): 100% | kinase still bound, per cent of control (MAPK7 (human)): 0.1% | kinase still bound, per cent of control (CAMK2A (human)): 27% | kinase still bound, per cent of control [3]: 100% | kinase still bound, per cent of control (ERBB4 (human)): 82% | kinase still bound, per cent of control (STK24 (human)): 92%
